Laboratory results taken from patent US20250325531A1, “TREATMENT OF SYSTOLIC DYSFUNCTION” (MyoKardia, Inc., priority 2024, published 2025).

Test system: patients with stable HFrEF
Assay: Safety and tolerability (TEAEs, serum troponin, ECG, Holter) in MAD cohorts, patients with stable HFrEF
Assay type: in vivo, human
Experimental: During the study, multiple evaluations were performed that included: serial TTE assessments (11-14 TTEs per patient on Days 1, 2, 3, 4, 7, 9, 10 and 11); PK sampling (PK sample collected concomitantly with every post-randomization echocardiogram); ECGs (on Days 2, 3, 4, 7, 9, 10, 11 and 16); troponin (collected concomitantly with every post-randomization ECG); and safety laboratory assessments. Confined patients underwent continuous telemetry. Holter monitoring was performed in all patients at baseline (Days 1-2) and at the end of double-blind treatment (Days 7-9). Vital signs were collected daily.
Safety and efficacy assessments were conducted by measuring patients' vital signs and laboratory parameters; performing TTE to measure, e.g., systolic ejection time; performing electrocardiograms (e.g., 12-lead ECG), real-time ECG telemetry (e.g., at least 3-lead), and Holter ECG; and measuring levels of troponin (e.g., troponin I and/or troponin T) and 4β-hydroxycholesterol.
Abnormal and/or rising troponin values (as per investigator's judgment and taking into account potential baseline troponin elevation frequently observed in heart failure) led to the patient being clinically evaluated for possible myocardial ischemia. […] The entire clinical context (e.g., signs, symptoms, new ECG changes, new troponin, and CK-MB abnormalities) was evaluated and correlated with any other relevant clinical findings, patient's medical history, and laboratory data to determine the clinical significance of the findings. Troponin results performed on Day 2 of Part 1 (SAD) and Day 10 of Part 2 (MAD) at a local lab were reviewed prior to the patient being discharged the next day.

[1] = Cohort A + C 75 mg BID (n = 15)

Cn1cc(S(=O)(=O)[C@@](C)(F)C2CCN(C(=O)Nc3ccon3)CC2)c(C(F)F)n1 [Compound I, (R)-4-(1-((3-(difluoromethyl)-1-methyl-1H-pyrazol-4-yl)sulfonyl)-1-fluoroethyl)-N-(isoxazol-3-yl) piperidine-1-carboxamide]
Number of patients with any AE leading to death [1]: 0
Number of patients with any TEAE [1]: 6
Number of patients with any TEAE leading to permanent treatment discontinuation [1]: 0
Number of patients with any serious TEAE [1]: 1
TEAE Abdominal discomfort, n patients [1]: 0
TEAE Alanine aminotransferase increased, n patients [1]: 1
TEAE Anemia, n patients [1]: 1
TEAE Application site erosion, n patients [1]: 0
TEAE Arthralgia, n patients [1]: 0
TEAE Arthropod bite, n patients [1]: 0
TEAE Back pain, n patients [1]: 0
TEAE Blood creatine phosphokinase increased, n patients [1]: 0
TEAE Blood creatinine increased, n patients [1]: 0
TEAE Cough, n patients [1]: 1
TEAE Dermatitis contact, n patients [1]: 0
TEAE Dry eye, n patients [1]: 0
TEAE Fatigue, n patients [1]: 2
TEAE Fluid overload, n patients [1]: 0
TEAE Gingival pain, n patients [1]: 0
TEAE Hyperkalemia, n patients [1]: 0
TEAE Infusion site erythema, n patients [1]: 0
TEAE Nasopharyngitis, n patients [1]: 0
TEAE Rash, n patients [1]: 0
TEAE Renal failure, n patients [1]: 0
TEAE Renal impairment, n patients [1]: 0
TEAE Testicular pain, n patients [1]: 0
TEAE Troponin increased, n patients [1]: 1
TEAE Ventricular tachycardia, n patients [1]: 0
Number of patients with any AE leading to death (Cohort B 50 mg BID (n = 9)): 0
Number of patients with any TEAE (Cohort B 50 mg BID (n = 9)): 7
Number of patients with any TEAE leading to permanent treatment discontinuation (Cohort B 50 mg BID (n = 9)): 0
Number of patients with any serious TEAE (Cohort B 50 mg BID (n = 9)): 0
TEAE Abdominal discomfort, n patients (Cohort B 50 mg BID (n = 9)): 1
TEAE Alanine aminotransferase increased, n patients (Cohort B 50 mg BID (n = 9)): 1
TEAE Anemia, n patients (Cohort B 50 mg BID (n = 9)): 0
TEAE Application site erosion, n patients (Cohort B 50 mg BID (n = 9)): 1
TEAE Arthralgia, n patients (Cohort B 50 mg BID (n = 9)): 0
TEAE Arthropod bite, n patients (Cohort B 50 mg BID (n = 9)): 0
TEAE Back pain, n patients (Cohort B 50 mg BID (n = 9)): 0
TEAE Blood creatine phosphokinase increased, n patients (Cohort B 50 mg BID (n = 9)): 1
TEAE Blood creatinine increased, n patients (Cohort B 50 mg BID (n = 9)): 0
TEAE Cough, n patients (Cohort B 50 mg BID (n = 9)): 0
TEAE Dermatitis contact, n patients (Cohort B 50 mg BID (n = 9)): 2
TEAE Dry eye, n patients (Cohort B 50 mg BID (n = 9)): 0
TEAE Fatigue, n patients (Cohort B 50 mg BID (n = 9)): 0
TEAE Fluid overload, n patients (Cohort B 50 mg BID (n = 9)): 1
TEAE Gingival pain, n patients (Cohort B 50 mg BID (n = 9)): 0
TEAE Hyperkalemia, n patients (Cohort B 50 mg BID (n = 9)): 1
TEAE Infusion site erythema, n patients (Cohort B 50 mg BID (n = 9)): 1
TEAE Nasopharyngitis, n patients (Cohort B 50 mg BID (n = 9)): 0
TEAE Rash, n patients (Cohort B 50 mg BID (n = 9)): 1
TEAE Renal failure, n patients (Cohort B 50 mg BID (n = 9)): 0
TEAE Renal impairment, n patients (Cohort B 50 mg BID (n = 9)): 0
TEAE Testicular pain, n patients (Cohort B 50 mg BID (n = 9)): 0
TEAE Troponin increased, n patients (Cohort B 50 mg BID (n = 9)): 0
TEAE Ventricular tachycardia, n patients (Cohort B 50 mg BID (n = 9)): 1
Number of patients with any AE leading to death (Cohort D 100 mg BID (n = 6)): 0
Number of patients with any TEAE (Cohort D 100 mg BID (n = 6)): 4
Number of patients with any TEAE leading to permanent treatment discontinuation (Cohort D 100 mg BID (n = 6)): 0
Number of patients with any serious TEAE (Cohort D 100 mg BID (n = 6)): 0
TEAE Abdominal discomfort, n patients (Cohort D 100 mg BID (n = 6)): 0
TEAE Alanine aminotransferase increased, n patients (Cohort D 100 mg BID (n = 6)): 0
TEAE Anemia, n patients (Cohort D 100 mg BID (n = 6)): 0
TEAE Application site erosion, n patients (Cohort D 100 mg BID (n = 6)): 0
TEAE Arthralgia, n patients (Cohort D 100 mg BID (n = 6)): 0
TEAE Arthropod bite, n patients (Cohort D 100 mg BID (n = 6)): 1
TEAE Back pain, n patients (Cohort D 100 mg BID (n = 6)): 0
TEAE Blood creatine phosphokinase increased, n patients (Cohort D 100 mg BID (n = 6)): 0
TEAE Blood creatinine increased, n patients (Cohort D 100 mg BID (n = 6)): 1
TEAE Cough, n patients (Cohort D 100 mg BID (n = 6)): 0
TEAE Dermatitis contact, n patients (Cohort D 100 mg BID (n = 6)): 0
TEAE Dry eye, n patients (Cohort D 100 mg BID (n = 6)): 0
TEAE Fatigue, n patients (Cohort D 100 mg BID (n = 6)): 0
TEAE Fluid overload, n patients (Cohort D 100 mg BID (n = 6)): 0
TEAE Gingival pain, n patients (Cohort D 100 mg BID (n = 6)): 1
TEAE Hyperkalemia, n patients (Cohort D 100 mg BID (n = 6)): 0
TEAE Infusion site erythema, n patients (Cohort D 100 mg BID (n = 6)): 0
TEAE Nasopharyngitis, n patients (Cohort D 100 mg BID (n = 6)): 0
TEAE Rash, n patients (Cohort D 100 mg BID (n = 6)): 0
TEAE Renal failure, n patients (Cohort D 100 mg BID (n = 6)): 0
TEAE Renal impairment, n patients (Cohort D 100 mg BID (n = 6)): 0
TEAE Testicular pain, n patients (Cohort D 100 mg BID (n = 6)): 0
TEAE Troponin increased, n patients (Cohort D 100 mg BID (n = 6)): 1
TEAE Ventricular tachycardia, n patients (Cohort D 100 mg BID (n = 6)): 1
QTc (MAD cohorts): No increase in QTc
patients with TEAEs (MAD cohorts, Compound I patients): 17 (57%) n (%)
patients with transient and asymptomatic increase in troponin I or hs-troponin T (MAD cohorts, all doses): 7 (23%) n (%)
Number of patients with any AE leading to death (Total Compound I (n = 30)): 0
Number of patients with any TEAE (Total Compound I (n = 30)): 17
Number of patients with any TEAE leading to permanent treatment discontinuation (Total Compound I (n = 30)): 0
Number of patients with any serious TEAE (Total Compound I (n = 30)): 1
TEAE Abdominal discomfort, n patients (Total Compound I (n = 30)): 1
TEAE Alanine aminotransferase increased, n patients (Total Compound I (n = 30)): 2
TEAE Anemia, n patients (Total Compound I (n = 30)): 1
TEAE Application site erosion, n patients (Total Compound I (n = 30)): 1
TEAE Arthralgia, n patients (Total Compound I (n = 30)): 0
TEAE Arthropod bite, n patients (Total Compound I (n = 30)): 1
TEAE Back pain, n patients (Total Compound I (n = 30)): 0
TEAE Blood creatine phosphokinase increased, n patients (Total Compound I (n = 30)): 1
TEAE Blood creatinine increased, n patients (Total Compound I (n = 30)): 1
TEAE Cough, n patients (Total Compound I (n = 30)): 1
TEAE Dermatitis contact, n patients (Total Compound I (n = 30)): 2
TEAE Dry eye, n patients (Total Compound I (n = 30)): 0
TEAE Fatigue, n patients (Total Compound I (n = 30)): 2
TEAE Fluid overload, n patients (Total Compound I (n = 30)): 1
TEAE Gingival pain, n patients (Total Compound I (n = 30)): 1
TEAE Hyperkalemia, n patients (Total Compound I (n = 30)): 1
TEAE Infusion site erythema, n patients (Total Compound I (n = 30)): 1
TEAE Nasopharyngitis, n patients (Total Compound I (n = 30)): 0
TEAE Rash, n patients (Total Compound I (n = 30)): 1
TEAE Renal failure, n patients (Total Compound I (n = 30)): 0
TEAE Renal impairment, n patients (Total Compound I (n = 30)): 0
TEAE Testicular pain, n patients (Total Compound I (n = 30)): 0
TEAE Troponin increased, n patients (Total Compound I (n = 30)): 2
TEAE Ventricular tachycardia, n patients (Total Compound I (n = 30)): 2
ventricular arrhythmias (Holter monitoring) (compared with placebo): no increase in ventricular arrhythmias
systolic blood pressure (higher concentration group): decrease
serious AE, one patient (not considered related to study treatment): hyperkalemia
